Some test systems named below: SF-295 CNS; OVCAR-3 ovarian; EKVX NSCLC; A549 NSCLC; UACC-257 melanoma; SF-539 CNS; HOP-92 NSCLC; NCI-H226 lung; OVCAR-5 ovarian.
Test in all cases: NCI anticancer screen, dose series, 48 h

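The compound was tested at five concentrations on cells cultured in 96-well plates, with a 48-hour exposure period. GI50 is the concentration that inhibits growth by half. TGI denotes the concentration required for complete inhibition of growth.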

The source of these data is PubChem BioAssay (NCI).

Turning to `O=C(O)C1(P(=O)(O)O)CC1`, the TGI in the test on SF-295 CNS, in the test with OVCAR-3 ovarian, with EKVX NSCLC, in the test with A549 NSCLC, with UACC-257 melanoma and with SF-539 CNS was above 100 µM in each case.
`O=C1OC(CCCl)(c2ccccc2)CC1CN1CCOCC1` (centres undefined): the TGI in the test on SF-295 CNS is above 100 µM; with OVCAR-3 ovarian it was 32.1 µM; in the test on EKVX NSCLC, 40.5 µM; with A549 NSCLC, above 100 µM; in the test on UACC-257 melanoma it was 73.4 µM; in the test with SF-539 CNS it was 70.1 µM. Moreover, the TGI in the test with HOP-92 NSCLC is 31.6 µM; in the test with NCI-H226 lung it was 28 µM; with OVCAR-5 ovarian it was above 100 µM.
On to `Brc1cccc(C2SCc3nc4ccccc4n32)c1` (centres undefined), for which the TGI with SF-295 CNS was 86.3 µM; in the test on OVCAR-3 ovarian, 32.6 µM; in the test with EKVX NSCLC, 55.2 µM; in the test on A549 NSCLC, above 100 µM; in the test on SF-539 CNS, 40.9 µM; in the test with HOP-92 NSCLC it was 35.6 µM. The figures for the TGI in the test with NCI-H226 lung and in the test on OVCAR-5 ovarian were 27 µM and above 100 µM, respectively.
In the case of `CCOC(=O)C(C)(c1cn(C)c2ccccc12)c1cn(C)c2ccccc12`, the TGI with SF-295 CNS, with OVCAR-3 ovarian, in the test with EKVX NSCLC, in the test on A549 NSCLC, in the test with UACC-257 melanoma and with SF-539 CNS was above 100 µM each time. The TGI with NCI-H226 lung and with OVCAR-5 ovarian was above 100 µM throughout.
For the compound `COc1ccc(OC)c(NC(=O)CCC/C(CC(=O)c2ccc(O)c(OC)c2)=N\NC(=O)C[N+](C)(C)C)c1`, the TGI in the test with SF-295 CNS, with OVCAR-3 ovarian, with EKVX NSCLC, in the test with A549 NSCLC, in the test with UACC-257 melanoma and in the test with SF-539 CNS was above 100 µM throughout. In addition, the TGI with HOP-92 NSCLC, in the test with NCI-H226 lung and in the test with OVCAR-5 ovarian was above 100 µM in each case.
In the case of `COc1cc2c(cc1OC(=O)CC(C)O)C1C(OC2=O)C(OC(C)=O)C=C2CCN(C)[C@H]21` (some centres undefined), the TGI in the test on SF-295 CNS is 49.9 µM; with OVCAR-3 ovarian, above 100 µM; in the test with EKVX NSCLC, above 100 µM; in the test with A549 NSCLC, above 100 µM; in the test with UACC-257 melanoma, above 100 µM; with SF-539 CNS it was 52.8 µM. Further, the TGI in the test with HOP-92 NSCLC was 44.5 µM; with NCI-H226 lung, 65.9 µM; in the test on OVCAR-5 ovarian it was above 100 µM.
With `CCOC(=O)C1=C(NC)OC/C1=N\NC(=O)c1ccccc1O`, the TGI is above 100 µM with SF-295 CNS; 98.5 µM in the test with OVCAR-3 ovarian; above 100 µM with EKVX NSCLC; above 100 µM with A549 NSCLC; 17.3 µM with UACC-257 melanoma; 60.6 µM in the test on SF-539 CNS. Besides, the TGI in the test with HOP-92 NSCLC was above 100 µM; in the test with NCI-H226 lung, 60.6 µM; in the test on OVCAR-5 ovarian, above 100 µM.
With `CCOC(=O)c1oc2ccc(OC)c3c2c1CCC3`, the TGI with SF-295 CNS was above 100 µM; in the test with OVCAR-3 ovarian, above 100 µM; in the test on EKVX NSCLC, above 100 µM; in the test on A549 NSCLC, above 100 µM; with UACC-257 melanoma it was 40 µM; in the test on SF-539 CNS it was above 100 µM. The TGI with HOP-92 NSCLC, with NCI-H226 lung and with OVCAR-5 ovarian was above 100 µM each time.
In the case of `CN(C)c1nc(=Nc2ccc3ccccc3c2)ss1`, the TGI is above 100 µM in the test with OVCAR-3 ovarian; above 100 µM with A549 NSCLC; 66.8 µM in the test on UACC-257 melanoma; above 100 µM in the test on SF-539 CNS; above 100 µM with NCI-H226 lung.
For `COC1CC(OS(=O)(=O)c2ccc(C)cc2)C(OC(=O)c2ccccc2)C(C)O1` (centres undefined), the TGI with SF-295 CNS is above 100 µM; with OVCAR-3 ovarian, above 10 µM; in the test on EKVX NSCLC it was above 100 µM; in the test with A549 NSCLC, above 100 µM; in the test with UACC-257 melanoma, above 10 µM; in the test with SF-539 CNS it was above 100 µM. For the same compound, the TGI with HOP-92 NSCLC, with NCI-H226 lung and in the test on OVCAR-5 ovarian was above 100 µM each time. Besides, the GI50 is above 100 µM with EKVX NSCLC; above 100 µM with A549 NSCLC; above 100 µM with SF-539 CNS; above 10 µM with HOP-92 NSCLC; above 100 µM with NCI-H226 lung; above 100 µM in the test with OVCAR-5 ovarian.
Consider `CCOC(=O)c1nc2ccc([N+](=O)[O-])cc2c2c1CCO2`, for which the TGI in the test with SF-295 CNS, in the test on OVCAR-3 ovarian, with EKVX NSCLC, in the test with A549 NSCLC, in the test on UACC-257 melanoma and in the test on SF-539 CNS was above 100 µM throughout. Also, the TGI in the test with NCI-H226 lung and with OVCAR-5 ovarian was above 100 µM in each case.
Consider `CC(=O)OC1CCn2nnc(CO[Si](C)(C)C(C)(C)C)c21` (centres undefined), for which the TGI in the test on SF-295 CNS, with OVCAR-3 ovarian, with EKVX NSCLC, in the test with A549 NSCLC, with UACC-257 melanoma and in the test with SF-539 CNS was above 100 µM throughout. The TGI with NCI-H226 lung and in the test on OVCAR-5 ovarian was above 100 µM each time.
As to `COc1cc(C(=O)C/C(CCC(=O)Nc2ccccc2[N+](=O)[O-])=N\NC(=O)CC#N)ccc1O`, the TGI in the test on SF-295 CNS, in the test on OVCAR-3 ovarian, with EKVX NSCLC, in the test with A549 NSCLC, with UACC-257 melanoma and with SF-539 CNS was above 100 µM each time. The TGI in the test with NCI-H226 lung and with OVCAR-5 ovarian was above 100 µM each time.
For `Nn1c(-c2ccccc2Cl)nc2ccccc2c1=O`, the TGI in the test with SF-295 CNS, with OVCAR-3 ovarian, in the test with EKVX NSCLC, in the test on A549 NSCLC, with UACC-257 melanoma and in the test with SF-539 CNS was above 100 µM throughout. The TGI in the test on HOP-92 NSCLC, in the test on NCI-H226 lung and with OVCAR-5 ovarian was above 100 µM in each case.
In the case of `Cc1c(C#N)c(=O)[nH]c(=O)n1CCN1CCN(C(=O)NCCCCCCNC(=O)N2CCN(CCn3c(C)c(C#N)c(=O)[nH]c3=O)CC2)CC1`, the TGI in the test on SF-295 CNS, with OVCAR-3 ovarian, with EKVX NSCLC, in the test with A549 NSCLC, in the test with UACC-257 melanoma and in the test on SF-539 CNS was above 100 µM in each case. In the test on HOP-92 NSCLC, this compound returned a TGI above 100 µM.
As for `COc1ccc(C2=C(Cl)c3cc(OC)c(OC)cc3C2Cl)cc1OC` (centres undefined), the TGI in the test with SF-295 CNS is 33.8 µM; in the test on OVCAR-3 ovarian it was 28.4 µM; with EKVX NSCLC, 50.5 µM; with A549 NSCLC, 42 µM; in the test with UACC-257 melanoma, 32 µM; with HOP-92 NSCLC, 46.1 µM. Further, the TGI with OVCAR-5 ovarian stood at 30.2 µM.
